In patent US7288528B2, “Aromatic fluoroglycoside derivatives, medicaments containing these compounds, and the use thereof” (Sanofi-Aventis Deutschland GmbH, priority 2002, dated 2007):

Molecular target: T1, SGLT (Oryctolagus cuniculus, UniProt P11170)
T1 construct: To prepare brush border membranes from rabbit small intestine, rabbits were sacrificed; from tissue; host or cells: rabbit small intestine mucosa, brush border membrane vesicles (Mg2+ precipitation method)
T1 sequence (P11170 1-662): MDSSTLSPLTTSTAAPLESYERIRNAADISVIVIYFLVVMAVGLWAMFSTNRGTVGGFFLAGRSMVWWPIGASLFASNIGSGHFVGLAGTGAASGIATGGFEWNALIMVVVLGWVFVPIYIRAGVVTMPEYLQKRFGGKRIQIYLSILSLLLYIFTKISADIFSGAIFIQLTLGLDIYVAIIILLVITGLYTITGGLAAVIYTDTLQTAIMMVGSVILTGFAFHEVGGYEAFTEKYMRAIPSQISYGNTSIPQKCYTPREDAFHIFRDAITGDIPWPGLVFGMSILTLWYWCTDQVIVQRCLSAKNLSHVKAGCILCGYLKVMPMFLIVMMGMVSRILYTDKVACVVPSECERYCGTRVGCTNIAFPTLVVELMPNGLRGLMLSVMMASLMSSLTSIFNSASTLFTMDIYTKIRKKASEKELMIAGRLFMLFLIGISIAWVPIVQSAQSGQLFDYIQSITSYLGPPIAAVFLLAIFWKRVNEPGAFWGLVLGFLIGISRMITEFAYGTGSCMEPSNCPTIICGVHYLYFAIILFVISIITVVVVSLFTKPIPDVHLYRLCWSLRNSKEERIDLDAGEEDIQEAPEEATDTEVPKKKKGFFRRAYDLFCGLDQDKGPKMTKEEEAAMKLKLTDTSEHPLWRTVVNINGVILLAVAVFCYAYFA
Test: Glucose uptake by brush border membrane vesicles (transport assay, membrane filtration method)
Assay type: biochemical
Conditions: uptake of 10 μM [14C]D-glucose into rabbit small intestine brush border membrane vesicles, 30° C., 15 seconds

IC50	Compound
900 nM	COc1ccc(CCC(=O)c2c(O)cc(C)cc2OC2OC(CO)C(F)C(O)C2O)cc1 (centres unmarked) [Example 7]
700 nM	OCC1OC(Oc2ccccc2Cc2ccccc2)C(O)C(O)C1F (centres unmarked) [Example 2]
400 nM	Cc1cc(O)c(C(=O)CCc2ccc3occc3c2)c(OC2OC(CO)C(F)C(O)C2O)c1 (single isomer, unassigned) [Example 5]

Second part, the molecule before the results:

Compound	IC50
Cc1cc(O)c(C(=O)CCc2ccc3occc3c2)c(OC2OC(CO)C(F)C(O)C2O)c1 (single isomer, unassigned) [Example 4]	1500 nM
COc1ccc(Cc2ccccc2OC2OC(CO)C(F)C(O)C2O)cc1 (centres unmarked) [Example 1]	500 nM
